Converted amounts (≈) assume the structure as drawn. The source made the active and inactive calls. No cut-off for these calls is given here.
Columns and labels:
[1] = tested on: Fusarium oxysporum; experiment: Antifungal activity against Fusarium oxysporum at 50 ug/mL by agar plate method; type: functional, organism-based
[2] = tested on: Botrytis; experiment: Antifungal activity against Botrytis […] at 50 ug/mL by agar plate method; type: functional
[3] = tested on: Fusarium graminearum; experiment: Antifungal activity against Gibberella zeae at 50 ug/mL by agar plate method; type: functional, organism-based
[4] = Antifungal activity against Dothiorella gregaria at 50 ug/mL by agar plate method; type: functional
[5] = tested on: Colletotrichum; experiment: Antifungal activity against Colletotrichum gossypii at 50 ug/mL by agar plate method; type: functional
[6] = tested on: Rhizoctonia solani; experiment: Antifungal activity against Rhizoctonia solani by agar plate method; type: functional, organism-based
[7] = tested on: Rhizoctonia solani; experiment: Ratio of triadimefon EC50 to compound EC50 for Rhizoctonia solani; type: functional

SMILES | Activity [1] | Activity [2] | Activity [3] | Activity [4] | Activity [5] | EC50 [6] [µg/mL] | Ratio EC50 [7]
Cc1ccc(Cn2cnc(C(=O)N(C#N)CCCc3ccccc3)c2C)cc1 | inactive | inactive | inactive | inactive | inactive | 4.64 (≈ 12.5 µM) | –
CCCCN(C#N)C(=O)c1ncn(CCCC)c1C | inactive | inactive | inactive | inactive | inactive | 9.01 (≈ 34.3 µM) | –
Cc1c(C(=O)N(C#N)Cc2ccccc2)ncn1Cc1ccc(F)cc1 | inactive | inactive | inactive | inactive | inactive | 31.3 (≈ 89.9 µM) | –
CC(C)(C)C(=O)C(Oc1ccc(Cl)cc1)n1cncn1 (stereo not drawn) [TRIADIMEFON] | – | – | – | – | – | 14.7 (≈ 50 µM) | –
Cc1c(C(=O)N(C#N)Cc2ccc(F)cc2F)ncn1Cc1ccc(F)cc1 | inactive | inactive | inactive | inactive | inactive | 2.63 (≈ 6.84 µM) | 5.6
Cc1c(C(=O)N(C#N)Cc2ccccc2F)ncn1Cc1cccc([N+](=O)[O-])c1 | inactive | inactive | inactive | inactive | inactive | 6.67 (≈ 17 µM) | –
Cc1c(C(=O)N(C#N)Cc2ccc(F)cc2)ncn1Cc1cccc([N+](=O)[O-])c1 | inactive | inactive | inactive | inactive | inactive | 3.61 (≈ 9.18 µM) | –
Cc1ccc(Cn2cnc(C(=O)N(C#N)Cc3ccccc3)c2C)cc1 | inactive | inactive | inactive | inactive | inactive | 3.04 (≈ 8.83 µM) | –
CCCCn1cnc(C(=O)N(C#N)Cc2ccccc2)c1C | inactive | inactive | inactive | inactive | inactive | 7.98 (≈ 26.9 µM) | –
Cc1c(C(=O)N(C#N)Cc2ccccc2)ncn1Cc1ccccc1 | inactive | inactive | inactive | inactive | inactive | 7.74 (≈ 23.4 µM) | –
Cc1ccc(CN(C#N)C(=O)c2ncn(Cc3ccc(C)cc3)c2C)cc1 | inactive | inactive | inactive | inactive | inactive | 15.8 (≈ 44.1 µM) | –
Cc1c(C(=O)N(C#N)Cc2ccc(F)cc2)ncn1Cc1ccc(F)cc1 | inactive | inactive | inactive | inactive | inactive | 20.8 (≈ 56.8 µM) | –
Cc1ccc(Cn2cnc(C(=O)N(C#N)Cc3ccc(F)cc3)c2C)cc1 | inactive | inactive | inactive | inactive | inactive | 3.04 (≈ 8.39 µM) | –
COC(=O)c1ccccc1CN(C#N)C(=O)c1ncn(Cc2ccc(F)cc2)c1C | inactive | inactive | inactive | inactive | inactive | 13.3 (≈ 32.6 µM) | –
Cc1ccc(Cn2cnc(C(=O)N(C#N)Cc3ccccc3F)c2C)cc1 | inactive | inactive | inactive | inactive | inactive | 8.76 (≈ 24.2 µM) | –
Cc1ccc(Cn2cnc(C(=O)N(C#N)Cc3ccccc3Cl)c2C)cc1 | inactive | inactive | inactive | inactive | inactive | 3.53 (≈ 9.32 µM) | –
CCCCn1cnc(C(=O)N(C#N)Cc2ccccc2F)c1C | inactive | inactive | inactive | inactive | inactive | 13.3 (≈ 42.2 µM) | –
